In BindingDB's records for doi:10.1016/j.bmcl.2003.12.105 (Ucb Pharma, 2004):

experiment: Inhibition of [3H](+)-pentazocine binding to Sigma receptor type 1

Structure (SMILES) | Ki [nM]
COc1ccc2c(c1)[C@]1(CCN(C)CCO)CCCC[C@@H]1C=C2 [2-{[2-((4aS,10aR)-6-Methoxy-1,3,4,10a-tetrahydro-2H-phenanthren-4a-yl)-ethyl]-methyl-amino}-ethanol] | 161
COc1ccc2c(c1)[C@]1(CCN(C)CCOCc3ccccc3)CCCC[C@@H]1C=C2 [(2-Benzyloxy-ethyl)-[2-((4aS,10aR)-6-methoxy-1,3,4,10a-tetrahydro-2H-phenanthren-4a-yl)-ethyl]-methyl-amine; compound with GENERIC INORGANIC NEUTRAL COMPONENT] | 241
COCCN(C)CC[C@@]12CCCC[C@@H]1C=Cc1ccc(OC)cc12 [(2-Methoxy-ethyl)-[2-((4aS,10aR)-6-methoxy-1,3,4,10a-tetrahydro-2H-phenanthren-4a-yl)-ethyl]-methyl-amine; compound with GENERIC INORGANIC NEUTRAL COMPONENT] | 49
C=CCN(C)CC[C@@]12CCCC[C@@H]1C=Cc1ccc(OC)cc12 [Allyl-[2-((4aS,10aR)-6-methoxy-1,3,4,10a-tetrahydro-2H-phenanthren-4a-yl)-ethyl]-methyl-amine; compound with GENERIC INORGANIC NEUTRAL COMPONENT] | 49
COc1ccc2c(c1)[C@]13CCCC[C@@H]1[C@H](C2)N(C)CC3 [DEXTROMETHORPHAN] | 348
COc1ccc2c(c1)[C@]1(CC[N+](C)(C)C(=O)OC(C)(C)C)CCCC[C@@H]1C=C2 [N-{2-[(4aS,10aR)-6-methoxy-1,2,3,4,4a,10a-hexahydrophenanthren-4a-yl]ethyl}-1-(tert-butoxy)-N,N-dimethylcarbonyl{2-[(4aS,10aR)-6-methoxy-1,2,3,4,4a,10a-hexahydrophenanthren-4a-yl]ethyl}dimethylazanium] | > 3300
COc1ccc2c(c1)[C@]1(CCN(C)C)CCCC[C@@H]1C=C2 [[2-((4aS,10aR)-6-Methoxy-1,3,4,10a-tetrahydro-2H-phenanthren-4a-yl)-ethyl]-dimethyl-amine; compound with GENERIC INORGANIC NEUTRAL COMPONENT] | 245
CNCC[C@@]12CCCC[C@@H]1C=Cc1ccc(OC)cc12 [[2-((4aS,10aR)-6-Methoxy-1,3,4,10a-tetrahydro-2H-phenanthren-4a-yl)-ethyl]-methyl-amine] | 456
CCOC(=O)N(C)CC[C@@]12CCCC[C@@H]1C=Cc1ccc(OC)cc12 [[2-((4aS,10aR)-6-Methoxy-1,3,4,10a-tetrahydro-2H-phenanthren-4a-yl)-ethyl]-methyl-carbamic acid ethyl ester] | > 3300
CN(CC[C@]12CCCC[C@H]1C=Cc1ccc(OCC(=O)OC(C)(C)C)cc12)CC(=O)OC(C)(C)C [{(4bR,8aS)-4b-[2-(tert-Butoxycarbonylmethyl-methyl-amino)-ethyl]-4b,5,6,7,8,8a-hexahydro-phenanthren-3-yloxy}-acetic acid tert-butyl ester] | 115
CN(CC[C@@]12CCCC[C@@H]1C=Cc1ccc(OCC(=O)OC(C)(C)C)cc12)CC(=O)OC(C)(C)C [{(4bS,8aR)-4b-[2-(tert-Butoxycarbonylmethyl-methyl-amino)-ethyl]-4b,5,6,7,8,8a-hexahydro-phenanthren-3-yloxy}-acetic acid tert-butyl ester] | 14
COc1ccc2c(c1)[C@]1(CCN(C)CC(=O)OC(C)(C)C)CCCC[C@@H]1C=C2 [{[2-((4aS,10aR)-6-Methoxy-1,3,4,10a-tetrahydro-2H-phenanthren-4a-yl)-ethyl]-methyl-amino}-acetic acid tert-butyl ester; compound with GENERIC INORGANIC NEUTRAL COMPONENT] | 37

experiment: as above; remark: another data set of the same source

Structure (SMILES) | Ki [nM]
COc1ccc2c(c1)[C@]1(CCN(C)CC(=O)OC(C)(C)C)CCCC[C@@H]1C=C2 [{[2-((4aS,10aR)-6-Methoxy-1,3,4,10a-tetrahydro-2H-phenanthren-4a-yl)-ethyl]-methyl-amino}-acetic acid tert-butyl ester; compound with GENERIC INORGANIC NEUTRAL COMPONENT] | 373
